Holding throughout (assay type): in vivo
One test relates to Commelina benghalensis. Briefly: Greenhouse pre-emergence (PRE) herbicidal test on COMBE. Here is the method: (§1) The culture containers used were plastic pots containing loamy sand with approximately 3.0% of humus as substrate. The seeds of the test plants were sown separately for each species.
(§2) The containers were irrigated gently to promote germination and growth and subsequently covered with transparent plastic hoods until the plants had rooted.
(§3) Depending on the species, the plants were kept at 10-25° C. and 20-35° C., respectively.
(§4) The test period extended over 2 to 4 weeks. During this time, the plants were tended and their response to the individual treatments was evaluated.
(§5) Evaluation was carried out using a scale from 0 to 100. 100 means no emergence of the plants, or complete destruction of at least the above-ground parts, and 0 means no damage or normal course of growth. A good herbicidal activity is given at values of at least 70, and very good herbicidal activity is given at values of at least 85.
(§6) As indicated application was either post emergent (POST) at the respective growth stage (GS) of the weed (BBCH code), or pre-emergent (PRE). […]

Test [1] has as its system Abutilon theophrasti. Briefly: Greenhouse pre-emergence (PRE) herbicidal test on ABUTH. Here is the method:
as §1, §2, §3, §4, §5, §6

In a further test the test system is Geranium pusillum. The test is described as follows: Greenhouse post-emergence (POST) herbicidal test on GERPU. How it is done:
as §1
(§7) For the post-emergence treatment, the test plants were grown to a plant height of from 3 to 15 cm, depending on the plant habit, and only then treated with the active compounds which had been suspended or emulsified in water. To this end, the test plants were either sown directly, and grown in the same containers, or they were first grown separately as seedlings and transplanted into the test containers a few days prior to treatment.
as §3, §4, §5
(§8) If not stated differently, the respective components A and B, and if appropriate, C were formulated as a 5% by weight strength emulsion concentrate and, with addition of the amount of solvent system, introduced into the spray liquor used for applying the active compound.
as §6

For another test, the system named is Digitaria sanguinalis. Briefly: Greenhouse post-emergence (POST) herbicidal test on DIGSA. How it is done: as §1, §7, §3, §4, §5, §8, §6
In a further test the test system is Echinochloa crus-galli. Briefly: Greenhouse post-emergence (POST) herbicidal test on ECHCG. Here is the method:
as §1, §7, §3, §4, §5, §8, §6

The subject of another test is Lolium multiflorum. Briefly: Greenhouse pre-emergence (PRE) herbicidal test on LOLMU. Here is the method: as §1, §2, §3, §4, §5, §6
Another test relates to Ambrosia artemisiifolia. The test is described as follows: Greenhouse pre-emergence (PRE) herbicidal test on AMBEL. How it is done:
as §1, §2, §3, §4, §5, §6

Another test has as its system Euphorbia heterophylla. The test is described as follows: Greenhouse pre-emergence (PRE) herbicidal test on EPHHL. The note with it: Euphorbia heterophylla, pre-emergence. Here is the method:
as §1, §2, §3, §4, §5, §6

The subject of a further test is Alopecurus myosuroides. Briefly: Greenhouse pre-emergence (PRE) herbicidal test on ALOMY. Here is the method:
as §1, §2, §3, §4, §5, §6

In test [2] the test system is Abutilon theophrasti. The test is described as follows: Greenhouse post-emergence (POST) herbicidal test on ABUTH. How it is done:
as §1, §7, §3, §4, §5, §8, §6

[3] abbreviates: Digitaria sanguinalis, post-emergence, read-out: % activity.
The mark [4] stands for this setting: PRE, use rate 0.25 gai/ha, 20 DAT.

Molecules are shown by their SMILES.

This is an account of results in patent US20260007133A1, “HERBICIDAL COMPOSITION COMPRISING AZINE COMPOUNDS” (BASF SE, priority 2022, published 2026).

As for `CCNc1nc(Cl)nc(NC(C)C)n1` [Atrazine, atrazine], the inhibition at 100 g/ha in the test with Commelina benghalensis (Commelina benghalensis, pre-emergence, 480 h, PRE, COMBE, use rate 100 gai/ha, 20 DAT) was 25%; in the test with Geranium pusillum (Geranium pusillum, post-emergence, 480 h, POST, GERPU, use rate 100 gai/ha, 20 DAT, read-out: % activity), 75%. The inhibition at 50 g/ha with Abutilon theophrasti [1] (Abutilon theophrasti, pre-emergence, 480 h, PRE, ABUTH, use rate 50 gai/ha, 20 DAT) was found to be 0%; with Geranium pusillum (Geranium pusillum, post-emergence, 480 h, POST, GERPU, use rate 50 gai/ha, 20 DAT), 30%.
For the compound `CCCCOC(=O)[C@@H](C)Oc1ccc(Oc2ccc(C#N)cc2F)cc1` [Cyhalofop-Butyl, cyhalofop-butyl], in the test on Digitaria sanguinalis (setting [3]), the inhibition at 6.25 g/ha was 35% and the inhibition at 25 g/ha worked out at 70%. Also, the inhibition at 6.25 g/ha in the test on Echinochloa crus-galli (Echinochloa crus-galli, post-emergence, read-out: % activity) amounted to 80%.
As for `CCOC(=O)COc1ncccc1Oc1cc(-n2c(=O)cc(C(F)(F)F)n(C)c2=O)c(F)cc1Cl` [Epyrifenacil, epyrifenacil], the “% activity” value in the test with Digitaria sanguinalis (DIGSA POST, use rate 0.5 gai/ha) is recorded as 20%; in the test on Digitaria sanguinalis (DIGSA POST, use rate 1 gai/ha) it was 55%; in the test with Echinochloa crus-galli (ECHCG POST, use rate 1 gai/ha), 45%.
In the test on Lolium multiflorum (Lolium multiflorum, pre-emergence, 480 h, PRE, use rate 1000 gai/ha, 20 DAT), `CCOC1Oc2ccc(OS(C)(=O)=O)cc2C1(C)C` (stereo not drawn) [Ethofumesate, ethofumesate] gave an inhibition at 1000 g/ha of 60%. In the test with Ambrosia artemisiifolia (Ambrosia artemisiifolia, pre-emergence, 480 h, PRE, use rate 250 gai/ha, 20 DAT), the inhibition at 250 g/ha amounted to 0%.
Take `CCc1cnc(C2=NC(C)(C(C)C)C(=O)N2)c(C(=O)O)c1` (stereo not drawn) [Imazethapyr, imazethapyr]: the inhibition at […] was found to be 30% with Commelina benghalensis (Commelina benghalensis, pre-emergence, PRE, COMBE, use rate 7.5 gai/ha, read-out: % activity); 0% with Ambrosia artemisiifolia (Ambrosia artemisiifolia, pre-emergence, PRE, AMBEL, use rate 7.5 gai/ha, read-out: % activity); 60% in the test with Abutilon theophrasti [1] (Abutilon theophrasti, pre-emergence, PRE, ABUTH, use rate 7.5 gai/ha, read-out: % activity). For the same compound, the inhibition at 15 g/ha worked out at 70% with Commelina benghalensis (Commelina benghalensis, pre-emergence, PRE, COMBE, use rate 15 gai/ha); 40% in the test on Lolium multiflorum (Lolium multiflorum, pre-emergence, PRE, LOLMU, use rate 15 gai/ha); 10% in the test on Ambrosia artemisiifolia (Ambrosia artemisiifolia, pre-emergence, PRE, AMBEL, use rate 15 gai/ha).
With `CS(=O)(=O)c1cc(C(F)(F)F)ccc1C(=O)c1cnoc1C1CC1` [Isoxaflutole, isoxaflutole], the inhibition at 6.3 g/ha in the test on Euphorbia heterophylla (EPHHL PRE, use rate 6.3 gai/ha) worked out at 45%; in the test on Lolium multiflorum (Lolium multiflorum, pre-emergence, LOLMU PRE, use rate 6.3 gai/ha), 0%; in the test on Ambrosia artemisiifolia (Ambrosia artemisiifolia, pre-emergence, AMBEL PRE, use rate 6.3 gai/ha) it was 25%; with Abutilon theophrasti [1] (Abutilon theophrasti, pre-emergence, ABUTH PRE, use rate 6.3 gai/ha), 45%; with Alopecurus myosuroides (Alopecurus myosuroides, pre-emergence, ALOMY PRE, use rate 6.3 gai/ha), 0%. Besides, the inhibition at 25 g/ha is 75% in the test with Euphorbia heterophylla (EPHHL PRE, use rate 25 gai/ha) and 0% in the test with Alopecurus myosuroides (Alopecurus myosuroides, pre-emergence, ALOMY PRE, use rate 25 gai/ha).
Consider `CP(=O)(O)CC[C@H](N)C(=O)O.N` [L-Glufosinate-P-Ammonium], for which the “% activity” value with Geranium pusillum (POST, GERPU, use rate 75 gai/ha, 20 DAT) is 65%; with Echinochloa crus-galli (POST, ECHCG, use rate 75 gai/ha, 20 DAT), 30%.
For `COC(=O)c1ccc(CNS(C)(=O)=O)cc1S(=O)(=O)NC(=O)Nc1nc(OC)cc(OC)n1` [Mesosulfuron-Methyl, mesosulfuron-methyl], the “% activity” value in the test on Commelina benghalensis (setting [4]) turned out to be 35%; in the test with Lolium multiflorum (setting [4]), 0%; in the test on Lolium multiflorum (PRE, use rate 1 gai/ha, 20 DAT), 0%; with Alopecurus myosuroides (setting [4]), 0%; in the test on Alopecurus myosuroides (PRE, use rate 1 gai/ha, 20 DAT), 10%.
As to `CS(=O)(=O)c1ccc(C(=O)C2C(=O)CCCC2=O)c([N+](=O)[O-])c1` [Mesotrione, mesotrione], the inhibition at 4 g/ha with Euphorbia heterophylla (EPHHL PRE, use rate 4 gai/ha) came to 20%; in the test with Commelina benghalensis (Commelina benghalensis, pre-emergence, COMBE PRE, use rate 4 gai/ha), 25%. The inhibition at 16 g/ha with Euphorbia heterophylla (EPHHL PRE, use rate 16 gai/ha) came to 45%.
`C[C@@H](Oc1ccc(Oc2nc3ccc(Cl)cc3o2)cc1)C(=O)N(C)c1ccccc1F` [Metamifop, metamifop]: the “% activity” value in the test with Digitaria sanguinalis (DIGSA POST, use rate 25 gai/ha) was determined as 85%; with Echinochloa crus-galli (ECHCG POST, use rate 6.25 gai/ha) it was 50%.
For the compound `CSc1nnc(C(C)(C)C)c(=O)n1N` [Metribuzin, metribuzin], the inhibition at 31.25 g/ha in the test with Commelina benghalensis (Commelina benghalensis, pre-emergence, COMBE PRE, use rate 31.25 gai/ha) is 10%; in the test with Geranium pusillum (Geranium pusillum, post-emergence, GERPU POST, use rate 31.25 gai/ha), 70%. Moreover, in the test on Commelina benghalensis (Commelina benghalensis, pre-emergence, COMBE PRE, use rate 62.5 gai/ha), the inhibition at 62.5 g/ha worked out at 20%.
Regarding `COc1cnc(OC)n2nc(NS(=O)(=O)c3c(OCC(F)F)cccc3C(F)(F)F)nc12` [Penoxsulam, penoxsulam], the inhibition at 4 g/ha with Abutilon theophrasti [2] (Abutilon theophrasti, post-emergence, ABUTH POST, use rate 4 gai/ha) came out at 0%; with Digitaria sanguinalis (Digitaria sanguinalis, post-emergence, DIGSA POST, use rate 4 gai/ha), 10%; with Echinochloa crus-galli (Echinochloa crus-galli, post-emergence, ECHCG POST, use rate 4 gai/ha), 35%. Further, the inhibition at 2 g/ha in the test with Digitaria sanguinalis (Digitaria sanguinalis, post-emergence, DIGSA POST, use rate 2 gai/ha, read-out: % activity) is 0%; in the test on Echinochloa crus-galli (Echinochloa crus-galli, post-emergence, ECHCG POST, use rate 2 gai/ha, read-out: % activity) it was 10%.
With `CCCN(CCC)C(=O)SCc1ccccc1` [Prosulfocarb, prosulfocarb], the pest or weed control at 150 g/ha with Euphorbia heterophylla (480 h, PRE, EPHHL, Prosulfocarb solo 150 gai/ha, 20 DAT) was found to be 5%; with Lolium multiflorum (Lolium multiflorum, pre-emergence, 480 h, PRE, LOLMU, Prosulfocarb solo 150 gai/ha, 20 DAT), 15%. In addition, the pest or weed control at 600 g/ha was determined as 5% in the test with Euphorbia heterophylla (480 h, PRE, EPHHL, Prosulfocarb solo 600 gai/ha, 20 DAT); 20% in the test on Lolium multiflorum (Lolium multiflorum, pre-emergence, 480 h, PRE, LOLMU, Prosulfocarb solo 600 gai/ha, 20 DAT); 10% in the test on Ambrosia artemisiifolia (Ambrosia artemisiifolia, pre-emergence, 480 h, PRE, AMBEL, Prosulfocarb solo 600 gai/ha, 20 DAT); 5% in the test on Digitaria sanguinalis (Digitaria sanguinalis, post-emergence, 480 h, POST, DIGSA, Prosulfocarb solo 600 gai/ha, 20 DAT); 40% in the test on Abutilon theophrasti [1] (Abutilon theophrasti, pre-emergence, 480 h, PRE, ABUTH, Prosulfocarb solo 600 gai/ha, 20 DAT); 20% in the test with Geranium pusillum (Geranium pusillum, post-emergence, 480 h, POST, GERPU, Prosulfocarb solo 600 gai/ha, 20 DAT).
With `C#CCN1C(=O)C(F)(F)Oc2cc(F)c(-n3c(=O)n(C)c(=S)n(C)c3=O)cc21` [Trifludimoxazin, trifludimoxazin], the “% activity” value came to 80% in the test on Abutilon theophrasti [2] (POST, ABUTH, use rate 0.5 gai/ha); 0% with Ambrosia artemisiifolia (PRE, AMBEL, use rate 0.5 gai/ha); 30% with Digitaria sanguinalis (POST, DIGSA, use rate 1 gai/ha); 0% in the test with Abutilon theophrasti [1] (PRE, ABUTH, use rate 0.5 gai/ha); 10% in the test with Alopecurus myosuroides (PRE, ALOMY, use rate 0.5 gai/ha).
Consider `CCCN(CCC)c1c([N+](=O)[O-])cc(C(F)(F)F)cc1[N+](=O)[O-]` [Trifluralin, trifluralin], for which the pest or weed control at 1000 g/ha with Euphorbia heterophylla (480 h, PRE, EPHHL, Trifluralin solo 1000 gai/ha, 20 DAT) turned out to be 35%; in the test on Commelina benghalensis (Commelina benghalensis, pre-emergence, 480 h, PRE, COMBE, Trifluralin solo 1000 gai/ha, 20 DAT) it was 80%; in the test with Abutilon theophrasti [2] (Abutilon theophrasti, post-emergence, 480 h, POST, ABUTH, Trifluralin solo 1000 gai/ha, 20 DAT) it was 70%; in the test on Lolium multiflorum (Lolium multiflorum, pre-emergence, 480 h, PRE, LOLMU, Trifluralin solo 1000 gai/ha, 20 DAT), 15%; in the test with Alopecurus myosuroides (Alopecurus myosuroides, pre-emergence, 480 h, PRE, ALOMY, Trifluralin solo 1000 gai/ha, 20 DAT), 65%; with Geranium pusillum (Geranium pusillum, post-emergence, 480 h, POST, GERPU, Trifluralin solo 1000 gai/ha, 20 DAT) it was 85%. Moreover, the pest or weed control at 500 g/ha in the test on Abutilon theophrasti [2] (Abutilon theophrasti, post-emergence, 480 h, POST, ABUTH, Trifluralin solo 500 gai/ha, 20 DAT, read-out: % activity) was 15%; with Lolium multiflorum (Lolium multiflorum, pre-emergence, 480 h, PRE, LOLMU, Trifluralin solo 500 gai/ha, 20 DAT, read-out: % activity), 5%; in the test on Ambrosia artemisiifolia (Ambrosia artemisiifolia, pre-emergence, 480 h, PRE, AMBEL, Trifluralin solo 500 gai/ha, 20 DAT, read-out: % activity) it was 10%; in the test on Abutilon theophrasti [1] (Abutilon theophrasti, pre-emergence, 480 h, PRE, ABUTH, Trifluralin solo 500 gai/ha, 20 DAT, read-out: % activity), 25%; with Geranium pusillum (Geranium pusillum, post-emergence, 480 h, POST, GERPU, Trifluralin solo 500 gai/ha, 20 DAT, read-out: % activity) it was 25%.
